What was measured:
[1] = Plasma leptin assay in dietary-induced obese rats; format: in vivo, female Wistar rats; conditions: Figure 5
Method: (§1) The experiment was performed on female Wistar rats (originally in the weight range 250-300 g). The rats were housed in pairs in polypropylene cages with solid floors and sawdust bedding at a temperature of 21±4°C and 55±20% humidity. Animals were maintained on a reverse phase light-dark cycle (lights off for 8 h from 09.30-17.30 h) during which time the room was illuminated by red light. Animals had free access to powdered high fat diet (VRF1 plus 20% lard), ground chocolate, ground peanuts and tap water at all times. The three different diets were contained in separate glass feeding jars with aluminum lids with a 3-4 cm hole cut in it to allow access to the food. Animals were housed in pairs for twelve weeks for the induction of obesity. Animals were then housed singly in polypropylene cages with wire grid floors to enable the food intake of each rat to be recorded. […] Animals were accustomed to these new conditions (individual housing and the wire-grid floor cages) for at least 14 days before the start of the baseline readings. […] Plasma leptin concentration was determined using Assay Designs rat leptin enzyme immunometric assay kits (Cat No. 900-015) according to the manufacturer's regular protocol. […] Optical density at 450 nm was determined using a Molecular Devices VERSAmax tunable microplate reader and readings transferred to GraphPad Prism. […]

[2] = Feeding study in dietary-induced obese rats: food intake and body weight; format: in vivo, female Wistar rats; conditions: end of 28 day treatment, Figure 3
Method: The experiment was performed on female Wistar rats (originally in the weight range 250-300 g). The rats were housed in pairs in polypropylene cages with solid floors and sawdust bedding at a temperature of 21±4°C and 55±20% humidity. Animals were maintained on a reverse phase light-dark cycle (lights off for 8 h from 09.30-17.30 h) during which time the room was illuminated by red light. Animals had free access to powdered high fat diet (VRF1 plus 20% lard), ground chocolate, ground peanuts and tap water at all times. The three different diets were contained in separate glass feeding jars with aluminum lids with a 3-4 cm hole cut in it to allow access to the food. Animals were housed in pairs for twelve weeks for the induction of obesity. Animals were then housed singly in polypropylene cages with wire grid floors to enable the food intake of each rat to be recorded. Polypropylene trays with cage pads were placed beneath each cage to detect any food spillage. Animals were accustomed to these new conditions (individual housing and the wire-grid floor cages) for at least 14 days before the start of the baseline readings. […] Food intake and body weight were measured once daily. […] Thus, means were adjusted for differences in body weight between the groups on Day 1 and standard errors of the mean (SEM) were calculated from the residuals of the statistical model. […]

[3] = biological target: T1, recombinant human cannabinoid 1 receptor (CB1) (Homo sapiens, UniProt P21554); assay: In vitro determination of antagonism to CB1-receptor, [35S]GTPγS binding assay; format: biochemical; conditions: compound 1 µM versus agonist WIN 55,212-2; 100 % = maximal antagonism with Rimonabant (1 µM)
T1 construct: expressed in transfected cells
T1 sequence (P21554 whole entry): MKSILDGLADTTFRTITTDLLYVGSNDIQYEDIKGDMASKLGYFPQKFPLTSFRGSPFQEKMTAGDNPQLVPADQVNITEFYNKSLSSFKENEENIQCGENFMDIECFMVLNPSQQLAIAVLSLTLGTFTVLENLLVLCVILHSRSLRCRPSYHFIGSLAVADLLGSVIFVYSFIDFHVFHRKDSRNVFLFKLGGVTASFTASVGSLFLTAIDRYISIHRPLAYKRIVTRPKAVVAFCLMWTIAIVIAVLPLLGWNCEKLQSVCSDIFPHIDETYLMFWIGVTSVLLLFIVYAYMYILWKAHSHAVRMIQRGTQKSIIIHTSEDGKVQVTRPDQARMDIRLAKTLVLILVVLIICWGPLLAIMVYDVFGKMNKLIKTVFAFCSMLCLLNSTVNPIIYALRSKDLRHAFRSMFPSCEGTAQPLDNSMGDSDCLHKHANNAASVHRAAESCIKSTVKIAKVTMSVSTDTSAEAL
Method: The reaction is performed in 96-well plates. […] Radioactivity is determined using a Wallac Microbeta Trilux. Each experiment is performed at least in duplicate.
The average of basal [^35S]GTPγS binding is subtracted from all binding data.

[4] = Plasma insulin assay in dietary-induced obese rats; format: in vivo, female Wistar rats; conditions: Figure 6
Method: as §1, with “insulin” for “leptin”, “Mercodia ultrasensitive” for “Assay Designs”, “insulin ELISA” for “leptin enzyme immunometric assay”, “kits” for “kits (Cat No. 900-015)”, “manufacturers 50 µl sample” for “manufacturer's regular”

[5] = Determination of carcass fat content in dietary-induced obese rats; format: in vivo, female Wistar rats; conditions: g per rat, Figure 4
Method: The experiment was performed on female Wistar rats (originally in the weight range 250-300 g). The rats were housed in pairs in polypropylene cages with solid floors and sawdust bedding at a temperature of 21±4°C and 55±20% humidity. Animals were maintained on a reverse phase light-dark cycle (lights off for 8 h from 09.30-17.30 h) during which time the room was illuminated by red light. Animals had free access to powdered high fat diet (VRF1 plus 20% lard), ground chocolate, ground peanuts and tap water at all times. The three different diets were contained in separate glass feeding jars with aluminum lids with a 3-4 cm hole cut in it to allow access to the food. Animals were housed in pairs for twelve weeks for the induction of obesity. Animals were then housed singly in polypropylene cages with wire grid floors to enable the food intake of each rat to be recorded. […] Animals were accustomed to these new conditions (individual housing and the wire-grid floor cages) for at least 14 days before the start of the baseline readings. […] Percentage fat in the freeze-dried sample was calculated as follows: % fat = [100 × (final cup weight-initial cup weight)]/sample weight [formula] Percentage fat in the original sample was calculated using the % water as follows: % fat in original sample = % fat[(100-%water)/100] […]

[6] = Stability of the crystalline form; format: physicochemical; conditions: under certain conditions, especially around room temperature, and/or over time
[7] = biological target: Herg channel (Homo sapiens, UniProt Q12809); assay: Herg channel affinity; conditions: low risk of prolongation of the QT-interval expected
Chain of Herg channel (Q12809 whole entry): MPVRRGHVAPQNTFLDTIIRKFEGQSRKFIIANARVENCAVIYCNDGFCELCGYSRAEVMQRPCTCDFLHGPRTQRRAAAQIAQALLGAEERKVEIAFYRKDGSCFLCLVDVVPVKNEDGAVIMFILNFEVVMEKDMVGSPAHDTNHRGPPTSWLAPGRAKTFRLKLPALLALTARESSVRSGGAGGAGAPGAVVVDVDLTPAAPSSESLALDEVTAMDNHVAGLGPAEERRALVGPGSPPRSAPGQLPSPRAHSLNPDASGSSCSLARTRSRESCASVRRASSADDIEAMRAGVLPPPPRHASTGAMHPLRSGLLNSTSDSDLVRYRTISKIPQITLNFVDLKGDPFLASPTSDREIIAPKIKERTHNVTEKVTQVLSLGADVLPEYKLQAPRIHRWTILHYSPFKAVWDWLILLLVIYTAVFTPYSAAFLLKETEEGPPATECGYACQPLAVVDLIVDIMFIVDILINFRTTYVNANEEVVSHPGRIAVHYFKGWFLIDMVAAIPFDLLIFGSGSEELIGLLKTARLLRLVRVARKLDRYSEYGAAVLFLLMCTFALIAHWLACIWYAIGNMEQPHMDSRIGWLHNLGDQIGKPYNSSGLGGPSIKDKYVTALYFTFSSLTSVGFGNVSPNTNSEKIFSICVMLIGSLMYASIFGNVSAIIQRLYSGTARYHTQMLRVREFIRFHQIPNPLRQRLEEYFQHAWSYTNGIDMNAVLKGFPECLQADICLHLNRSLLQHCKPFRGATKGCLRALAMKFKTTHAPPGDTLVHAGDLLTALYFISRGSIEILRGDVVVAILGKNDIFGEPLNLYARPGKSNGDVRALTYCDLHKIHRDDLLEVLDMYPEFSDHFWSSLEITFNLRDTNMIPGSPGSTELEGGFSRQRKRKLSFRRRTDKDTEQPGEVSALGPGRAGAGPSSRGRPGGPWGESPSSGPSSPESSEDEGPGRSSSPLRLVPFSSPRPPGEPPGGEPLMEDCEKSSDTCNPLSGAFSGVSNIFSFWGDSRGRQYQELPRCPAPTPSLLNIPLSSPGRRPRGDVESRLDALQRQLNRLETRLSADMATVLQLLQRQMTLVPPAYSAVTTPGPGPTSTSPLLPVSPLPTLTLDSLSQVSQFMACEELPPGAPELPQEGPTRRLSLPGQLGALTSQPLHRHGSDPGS

[8] = Solubility; format: physicochemical
[9] = 10 mg/kg po once daily for 28 days
[10] = 30 mg/kg po once daily for 28 days

| Compound | decrease of plasma leptin levels compared to the vehicle-treated control group [1, 9] [%] | decrease of plasma leptin levels compared to the vehicle-treated control group [1, 10] [%] | body weights lower than those of the vehicle-treated controls ([2]; 10 mg/kg po once daily) [%] | body weights lower than those of the vehicle-treated controls ([2]; 30 mg/kg po once daily) [%] | Antagonism [%] [3] [%] | decrease of plasma insulin levels compared to the vehicle-treated control group [4, 9] [%] | decrease of plasma insulin levels compared to the vehicle-treated control group [4, 10] [%] | decrease in body fat compared to the vehicle-treated control group [5, 9] [g] | decrease in body fat compared to the vehicle-treated control group [5, 10] [g] | stability [6] | Herg channel affinity [7] | solubility [8] |
| --- | --- | --- | --- | --- | --- | --- | --- | --- | --- | --- | --- | --- |
| O=C(NN1CCCCC1)C1=NN(c2ccc(Cl)cc2Cl)[C@@H](c2ccc(Cl)cc2)C1 [Compound A, (R)-N-piperidinyl-5-(4-chlorophenyl)-1-(2,4-dichlorophenyl)-4,5-dihydro-1H-pyrazole-3-carboxamide] | 36.1 | 61.7 | 12.0 | 19.0 | 106 | 38.9 | 41.8 | 42.8 | 67.8 | – | – | – |
| O=C(NN1CCCCC1)C1=NN(c2ccc(Cl)cc2Cl)[C@@H](c2ccc(Cl)cc2)C1 [α-Polymorph, α-Polymorph of (R)-N-piperidinyl-5-(4-chlorophenyl)-1-(2,4-dichlorophenyl)-4,5-dihydro-1H-pyrazole-3-carboxamide] | – | – | – | – | – | – | – | – | – | good stability | relatively weak | relatively good |
